In patent US7244557B2, “Method of screening modulators of Nod1 signaling” (Regents of the University of Michigan, priority 2003, dated 2007):

Target: T1, NOD1 (Homo sapiens, UniProt Q9Y239)
T1 construct: expressed in transfected cells; host or cells: HEK293T
T1 sequence (Q9Y239 1-953): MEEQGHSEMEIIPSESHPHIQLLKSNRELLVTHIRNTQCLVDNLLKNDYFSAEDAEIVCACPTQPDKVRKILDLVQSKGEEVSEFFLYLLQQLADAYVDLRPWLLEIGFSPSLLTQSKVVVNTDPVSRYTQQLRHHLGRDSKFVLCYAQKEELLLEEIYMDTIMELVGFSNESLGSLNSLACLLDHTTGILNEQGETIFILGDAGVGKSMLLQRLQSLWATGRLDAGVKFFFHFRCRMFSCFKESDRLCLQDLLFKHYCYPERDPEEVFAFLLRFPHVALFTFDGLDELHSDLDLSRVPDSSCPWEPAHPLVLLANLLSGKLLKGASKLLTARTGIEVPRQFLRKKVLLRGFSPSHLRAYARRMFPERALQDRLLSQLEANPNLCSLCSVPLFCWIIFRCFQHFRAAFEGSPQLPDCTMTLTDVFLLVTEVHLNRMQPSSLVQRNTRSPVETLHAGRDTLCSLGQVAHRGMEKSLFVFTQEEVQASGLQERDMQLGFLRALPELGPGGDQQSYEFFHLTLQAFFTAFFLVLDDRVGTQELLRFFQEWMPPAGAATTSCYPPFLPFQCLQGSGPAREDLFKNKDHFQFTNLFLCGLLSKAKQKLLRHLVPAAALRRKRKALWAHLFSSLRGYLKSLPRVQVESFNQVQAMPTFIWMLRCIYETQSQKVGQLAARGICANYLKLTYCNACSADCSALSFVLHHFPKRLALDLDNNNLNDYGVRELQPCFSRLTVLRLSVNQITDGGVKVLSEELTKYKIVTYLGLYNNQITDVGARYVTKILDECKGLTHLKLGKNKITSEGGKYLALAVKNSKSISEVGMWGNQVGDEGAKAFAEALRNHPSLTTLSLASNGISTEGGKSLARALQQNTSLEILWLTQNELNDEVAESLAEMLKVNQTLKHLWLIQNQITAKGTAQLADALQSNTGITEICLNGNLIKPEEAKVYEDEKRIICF
Assay: NF-κB-dependent luciferase reporter assay, HEK293T cells expressing NOD1
Type: cell-based
Text: Reagents. LPS from S. typhimurium, intact and alkaline-detoxified LPS from E. coli O55:B5 as well as purified lipid A preparations of E. coli F583, MDP, DAP and dsRNA were obtained from Sigma-Aldrich (St. Louis, Mo.). PGN from S. aureus was from Fluka-Chemie (Buchs, Germany). Palmitoyl-Cys ((RS)-2,3-di(palmitoyloxy)-propyl)-Ala-Gly) (sBLP), was obtained from Bachem (Torrance, Calif.). The tetrameric form of the disaccharide dipeptide was described previously (Inohara et al., J. Biol. Chem. 278:5509 [2003]). iE-DAP and iQ-DAP, M3P and M4P were synthesized as described (Kitaura et al., J. Med. Chem. 25:335 [1982]) with small modification. Purification of PGN from B. subtilis 168 and C. flaccumfaciens with hydrolases, Cellosyl or recombinant AtlE (amidase domain) and the fractionation and purification of reduced B. subtilis PGN digested with Cellosyl were performed as previously described (Heilman et al., Mol. Microbiol. 24:1013 [1997]; Atrih et al., J. Bact. 181:3956 [1999]). Removal of proteins and reduction of LPS fraction. E. coli O55:B5 LPS (Sigma) was treated with proteinase K at 37° C. for 12 hr to digest contaminating proteins. To eliminate lipoproteins, LPS was subjected to modified phenol extraction with deoxycholate-containing phenol as described (Hirschfeld et al., J. Immunol. 165:618 [2000]). For reduction of carboxyl group in the LPS, the LPS was treated with 1-ethyl-3-(3-dimethylaminopropyl) carbodiimide and then reduced with NaBH4 as described (Taylor et al., Biochemistry 11:1383 [1972]). Preparation of E. coli extract. E. coli K-12 mutants were all based on the SØ864 genetic background (lacZ trp upp relA rpsL) (Neuhard and Thomassen, J. Bacteriol. 126:999). SØ874 carries a large chromosomal deletion removing the gene clusters for the biosynthesis of CA capsule and O-antigen. CLM5 is a derivative of SØ874 with a transposon insertion in the wecC gene that blocks the synthesis of ECA (Marolda et al., J. Bacteriol. 177:5539[1995]). FAM5 is a derivative of SØ874 carrying a deletion that eliminates the incorporation of heptose in the LPS core. Extracts were prepared from all of these E. coli K-12 strains and also from another E. coli K-12 strain, LCD27 YA21-6 (Obtained from Dr. Arisaka, Tokyo Institute of Technology). Bacteria were cultured overnight at 37° C. in Luria broth, killed by treatment with acetone followed by vacuum drying and finally resuspended in 10 mM HEPES. The extract was treated with 1M NaOH at 55° C. for 12 hr and neutralized with 1M HEPES (pH 7.4). The soluble fraction after centrifugation and filtration with 0.22 μm filter was applied to SUPEROSE 12 gel filtration column chromatography. Partial purification of NOD1-stimulatory molecules from E. coli and composition analyses. The amino acid composition of E. coli O55:B5 LPS was determined using AccQ·Tag amino acid analysis system (Waters, Milford, Mass.) after hydrolysis at 110° C. for 24 hr. For carbohydrate analysis, E coli K-12 YA21-6 (Ref 26) cultured overnight at 37° C. in L-broth were washed with TBS twice and incubated with TBS containing 1 mglml DNase I, RNase I and lysozyme for 37° C. for 2 hr. Acetone was added to the extracts at 50% final concentration and the insoluble fractions were washed with an excess of 75% and 100% acetone. After vacuum drying, the acetone extract was solublized with 1 M NaOH and incubated at 60° C. for 24 hr. The pH was adjusted to pH 5.0 with acetic acid and the soluble fraction was passed through SUPEROSE gel filtration column. SUPEROSE fractions with NOD1-stimulatory activity were diluted with 10 mM Tris-HCl (pH 8.8) and subjected to UnoQ column chromatography. The fractions were eluted with a linear gradient of 0–300 mM NaCl. The positive fractions were dialyzed against water and dried under vacuum. The monosaccharide composition of the fractions after TFA/methanol degradation was determined as previously described (Forsberg et al., J. Biol. Chem. 273:2747[1998]). Transfection and NF-κB Activation Assay. […]

Row | Substance | NOD1-dependent NF-κB activation (NOD1 stimulation)
1 | MurNAc-L-Ala-γ-D-Gln [MDP] | Neither MDP nor tetrameric forms of disaccharide dipeptide (4 mer) stimulated NOD1
2 | Palmitoyl-Cys ((RS)-2,3-di(palmitoyloxy)-propyl)-Ala-Gly) [synthetic lipoprotein] | not NOD1
3 | γ-D-Gln-DAP [iQ-DAP] | stimulated NOD1
4 | γ-D-glutamy-meso-diaminopimelic acid [iE-DAP] | stimulated NOD1
